The text below walks through data of ChEMBL document CHEMBL6109040, “Tyrosine kinase 2 inhibitors: Synthesis and applications in the treatment of autoimmune diseases” (Eur J Med Chem, 2025).

Series [1] addresses T1, Tyrosine-protein kinase JAK1 (Homo sapiens, UniProt P23458). Put plainly: Inhibition of JAK1 (unknown origin).
Series [2] addresses Tyrosine-protein kinase JAK2 (Homo sapiens, UniProt O60674). As to the kind of experiment: Binding affinity to JAK2 […] pseudokinase domain (unknown origin) assessed as dissociation constant by TR-FRET assay.
Series [3] concerns the target T2, Non-receptor tyrosine-protein kinase TYK2 (Homo sapiens, UniProt P29597). Put plainly: Inhibition of TYK2 JH2 pseudokinase domain (unknown origin) by TR-FRET assay. (In TR-FRET formats the signal depends on donor and acceptor labels being close together.)
Series [4] can be described thus: AUC in BALB/c mouse at 5 mg/kg, po by LC-MS/MS analysis. To be noted: in vivo. Type of series: ADME, organism-based.
The nature of series [5]: Cmax in BALB/c mouse at 5 mg/kg, po by LC-MS/MS analysis. Type of series: ADME, organism-based. To be noted: in vivo.
Series [6] has as its target T1, Tyrosine-protein kinase JAK1. Put plainly: Binding affinity to recombinant human JAK1 JH2 (553 to 856 residues) pseudokinase domain assessed as inhibition constant by fluorescence polarization assay.
A short description of series [7]: Inhibition of IL-12 induced IFNgamma production in human NK92 cells. Type of series: functional, cell-based, NK-92.
In series [8] the target is T2, Non-receptor tyrosine-protein kinase TYK2. Put plainly: Binding affinity to recombinant human TYK2 JH2 (564 to 876 residues) pseudokinase domain assessed as dissociation constant by fluorescence polarization assay.
Series [9] is described as follows: Inhibition of IFNalpha-induced STAT5 phosphorylation in human PBMC cells. Type of series: cell-based.
Series [10] deals with T2, Non-receptor tyrosine-protein kinase TYK2. As to the kind of experiment: Binding affinity to TYK2 JH2 (556 to 888 residues) pseudokinase domain (unknown origin) assessed as dissociation constant by KINOMEscan assay.

T2 sequence (P29597 whole entry, the tested form may be a part): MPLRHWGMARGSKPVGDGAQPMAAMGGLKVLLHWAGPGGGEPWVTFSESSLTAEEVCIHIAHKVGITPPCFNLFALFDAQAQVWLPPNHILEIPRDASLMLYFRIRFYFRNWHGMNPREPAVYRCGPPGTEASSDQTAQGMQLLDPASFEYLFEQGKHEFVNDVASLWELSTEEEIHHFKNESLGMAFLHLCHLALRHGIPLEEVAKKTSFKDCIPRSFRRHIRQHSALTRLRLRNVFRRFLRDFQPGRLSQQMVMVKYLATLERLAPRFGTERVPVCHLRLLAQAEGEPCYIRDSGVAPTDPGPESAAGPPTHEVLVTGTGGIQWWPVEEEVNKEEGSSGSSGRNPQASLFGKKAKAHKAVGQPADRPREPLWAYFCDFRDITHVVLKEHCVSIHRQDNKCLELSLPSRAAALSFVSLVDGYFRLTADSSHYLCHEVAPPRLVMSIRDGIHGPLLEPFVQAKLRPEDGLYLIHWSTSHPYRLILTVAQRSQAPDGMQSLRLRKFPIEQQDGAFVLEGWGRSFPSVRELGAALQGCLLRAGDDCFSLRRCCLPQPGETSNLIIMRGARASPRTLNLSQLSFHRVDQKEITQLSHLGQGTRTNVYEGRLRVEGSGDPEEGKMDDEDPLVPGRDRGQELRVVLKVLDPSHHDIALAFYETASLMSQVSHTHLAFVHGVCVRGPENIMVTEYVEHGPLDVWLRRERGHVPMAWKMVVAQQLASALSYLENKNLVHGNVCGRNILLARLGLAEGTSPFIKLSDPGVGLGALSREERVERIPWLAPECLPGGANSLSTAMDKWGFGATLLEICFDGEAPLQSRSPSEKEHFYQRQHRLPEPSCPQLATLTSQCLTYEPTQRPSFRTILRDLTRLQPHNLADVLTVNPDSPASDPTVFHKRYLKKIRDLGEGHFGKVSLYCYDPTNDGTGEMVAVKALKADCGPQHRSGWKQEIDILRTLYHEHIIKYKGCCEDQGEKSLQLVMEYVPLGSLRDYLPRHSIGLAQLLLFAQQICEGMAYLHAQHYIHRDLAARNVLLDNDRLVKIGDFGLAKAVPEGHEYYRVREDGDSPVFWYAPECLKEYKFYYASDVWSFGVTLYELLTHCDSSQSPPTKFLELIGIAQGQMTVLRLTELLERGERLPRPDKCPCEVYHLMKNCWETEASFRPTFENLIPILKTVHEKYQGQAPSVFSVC
T1 sequence (P23458 whole entry, the tested form may be a part): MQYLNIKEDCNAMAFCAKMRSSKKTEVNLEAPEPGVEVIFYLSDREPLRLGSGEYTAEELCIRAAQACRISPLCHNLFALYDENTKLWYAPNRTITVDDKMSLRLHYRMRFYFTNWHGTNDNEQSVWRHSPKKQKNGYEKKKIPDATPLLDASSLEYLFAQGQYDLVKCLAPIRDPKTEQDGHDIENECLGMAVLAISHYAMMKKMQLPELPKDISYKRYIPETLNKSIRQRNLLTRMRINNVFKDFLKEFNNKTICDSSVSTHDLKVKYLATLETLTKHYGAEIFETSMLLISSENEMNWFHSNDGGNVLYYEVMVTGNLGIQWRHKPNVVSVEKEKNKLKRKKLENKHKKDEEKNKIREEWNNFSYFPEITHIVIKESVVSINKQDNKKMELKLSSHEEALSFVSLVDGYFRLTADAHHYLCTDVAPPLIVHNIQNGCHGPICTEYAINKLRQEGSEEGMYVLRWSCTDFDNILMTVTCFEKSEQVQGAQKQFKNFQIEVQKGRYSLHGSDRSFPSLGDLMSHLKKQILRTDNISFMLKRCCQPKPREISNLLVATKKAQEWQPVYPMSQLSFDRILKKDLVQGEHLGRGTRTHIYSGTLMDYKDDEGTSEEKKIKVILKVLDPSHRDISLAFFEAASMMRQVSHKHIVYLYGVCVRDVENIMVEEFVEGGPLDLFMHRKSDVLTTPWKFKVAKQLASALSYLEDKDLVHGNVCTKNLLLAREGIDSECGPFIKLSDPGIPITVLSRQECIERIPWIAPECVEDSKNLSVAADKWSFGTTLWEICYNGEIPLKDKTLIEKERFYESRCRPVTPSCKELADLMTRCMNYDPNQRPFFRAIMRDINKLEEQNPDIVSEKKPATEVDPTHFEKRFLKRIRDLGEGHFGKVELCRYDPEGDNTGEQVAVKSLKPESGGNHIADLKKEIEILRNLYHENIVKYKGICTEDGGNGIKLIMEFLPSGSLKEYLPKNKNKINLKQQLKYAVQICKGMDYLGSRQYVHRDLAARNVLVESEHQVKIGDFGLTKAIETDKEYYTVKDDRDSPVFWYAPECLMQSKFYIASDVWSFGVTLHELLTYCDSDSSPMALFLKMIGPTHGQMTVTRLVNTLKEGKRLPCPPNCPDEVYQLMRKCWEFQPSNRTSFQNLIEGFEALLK
Sequence of Tyrosine-protein kinase JAK2 (O60674 whole entry, the tested form may be a part): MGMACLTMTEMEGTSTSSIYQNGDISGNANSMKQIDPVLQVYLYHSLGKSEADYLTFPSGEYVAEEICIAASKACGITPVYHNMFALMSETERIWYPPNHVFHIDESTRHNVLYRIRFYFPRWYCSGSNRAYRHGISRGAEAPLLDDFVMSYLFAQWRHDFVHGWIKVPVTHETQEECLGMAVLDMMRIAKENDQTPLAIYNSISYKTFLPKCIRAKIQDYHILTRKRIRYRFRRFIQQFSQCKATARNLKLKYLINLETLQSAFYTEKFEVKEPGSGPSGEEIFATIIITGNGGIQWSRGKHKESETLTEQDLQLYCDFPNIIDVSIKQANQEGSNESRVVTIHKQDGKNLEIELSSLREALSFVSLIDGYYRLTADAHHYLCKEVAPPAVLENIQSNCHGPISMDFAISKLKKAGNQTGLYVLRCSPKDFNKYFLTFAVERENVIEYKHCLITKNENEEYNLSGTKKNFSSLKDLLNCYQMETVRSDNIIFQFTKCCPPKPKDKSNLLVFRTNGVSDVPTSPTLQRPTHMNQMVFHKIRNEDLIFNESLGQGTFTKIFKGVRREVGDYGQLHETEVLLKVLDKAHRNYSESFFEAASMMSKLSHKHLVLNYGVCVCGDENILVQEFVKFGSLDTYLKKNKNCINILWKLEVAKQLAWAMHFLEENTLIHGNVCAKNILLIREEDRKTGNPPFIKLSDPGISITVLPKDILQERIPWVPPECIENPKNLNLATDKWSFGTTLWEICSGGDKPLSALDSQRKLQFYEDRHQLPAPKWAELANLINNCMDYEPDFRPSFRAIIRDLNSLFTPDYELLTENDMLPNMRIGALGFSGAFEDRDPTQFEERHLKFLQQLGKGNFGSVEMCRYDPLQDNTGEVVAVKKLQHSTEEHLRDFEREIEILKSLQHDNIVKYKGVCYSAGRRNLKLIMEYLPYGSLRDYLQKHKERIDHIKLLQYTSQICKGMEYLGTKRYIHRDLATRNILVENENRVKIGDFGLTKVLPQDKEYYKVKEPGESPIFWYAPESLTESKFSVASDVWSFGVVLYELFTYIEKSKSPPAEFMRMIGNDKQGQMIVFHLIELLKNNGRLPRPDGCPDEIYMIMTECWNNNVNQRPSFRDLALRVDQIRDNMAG

By IC50 is commonly meant the concentration that inhibits the measured activity by half. A lower IC50 goes with greater potency in that assay. In [1], `CNC(=O)c1nnc(NC(=O)N2CCC2)cc1Nc1cccc(-c2ncn(C)n2)c1OC` registered an IC50 of 5900 nM. Broadly, the Kd is the free concentration of one partner at which half of the binding sites on the other are occupied at equilibrium, for simple one-to-one binding. For `CNC(=O)c1cnc2cc1Nc1cc(cc(-c3ccn(C)n3)c1OC)CCOCc1cccc(n1)N2`, the Kd in [2] was more than 10000 nM. For the same compound, the half-inhibitory concentration (IC50) in [3] is less than 1 nM.

The AUC is concentration integrated over time. The term Cmax denotes the peak of the concentration-time curve. `[2H]C([2H])([2H])N1Cc2nc(NC(=O)C3CC3)cc(Nc3cccc(-c4ncn(C)n4)c3OC)c2C1=O` returned an AUC in series [4] of 3650 ng·h/mL. The compound further gave a Cmax in series [5] of 1160 ng/mL. The Ki is the equilibrium dissociation constant of an inhibitor or competing ligand from its target. For the compound `CO[C@@]1(c2cc(C)cc(-n3cc(C4CC4)c4cnc(NC(C)=O)cc43)n2)CCOC1`, the Ki in series [6] is more than 10000 nM. Consider `NC(=O)c1nnc(-c2c(F)cccc2F)cc1Nc1ccc(N2CCOCC2)cn1`, for which, in series [7], 80 nM corresponded to half-maximal inhibition (IC50). That is a double-digit nanomolar value. As for `CNc1cc2nn3c(cnc13)C(=O)N[C@H](C)COCc1ccc(OC)c(c1)N2`, the Kd in series [8] was 0.023 nM; in series [10], 0.022 nM. In series [9], this compound returned an IC50 of 1.7 nM.

As to `CC(=O)Nc1cc(Nc2cccc(S(C)(=O)=O)n2)c(-c2ccccn2)cn1`, the half-maximal inhibitory concentration (IC50) in series [7] worked out at 0.243 nM.
